Experimental findings from patent US8642544B2, “N-terminus conformationally constrained GLP-1 receptor agonist compounds” (Amylin Pharmaceuticals, LLC, priority 2009, dated 2014) are described below.

The test system of one test is NIH/Swiss female mice. Description: in vivo basal glucose lowering assay. The following applies: subcutaneous injection. As to the method: Some compounds shown in Table 1 below were analyzed in an in vivo basal glucose lowering assay using the following procedure: A subcutaneous injection of either 200 μl phosphate-buffered saline (PBS) vehicle or test article was given immediately following baseline glucose (t=0) to NIH/Swiss female mice. Tail blood glucose samples were measured at t=2 and 4 hours post dose using a OneTouch® Ultra® (LifeScan, Inc., a Johnson & Johnson Company, Milpitas, Calif.). Body weight was measured daily. Significant test sample effects were identified by ANOVA (p<0.05), followed by Dunnett's post test using GraphPad Prism version 4.00 for Windows (GraphPad Software, San Diego Calif.).

The next test has as its target T1, GLP-1 receptor (Rattus norvegicus, UniProt P32301).
T1 construct: 96-well assay plate containing RIN m5f cell membranes in an ATP/GTP mixture; endogenous in cells; host or cells: RIN m5f cell membranes
T1 sequence (P32301 22-463): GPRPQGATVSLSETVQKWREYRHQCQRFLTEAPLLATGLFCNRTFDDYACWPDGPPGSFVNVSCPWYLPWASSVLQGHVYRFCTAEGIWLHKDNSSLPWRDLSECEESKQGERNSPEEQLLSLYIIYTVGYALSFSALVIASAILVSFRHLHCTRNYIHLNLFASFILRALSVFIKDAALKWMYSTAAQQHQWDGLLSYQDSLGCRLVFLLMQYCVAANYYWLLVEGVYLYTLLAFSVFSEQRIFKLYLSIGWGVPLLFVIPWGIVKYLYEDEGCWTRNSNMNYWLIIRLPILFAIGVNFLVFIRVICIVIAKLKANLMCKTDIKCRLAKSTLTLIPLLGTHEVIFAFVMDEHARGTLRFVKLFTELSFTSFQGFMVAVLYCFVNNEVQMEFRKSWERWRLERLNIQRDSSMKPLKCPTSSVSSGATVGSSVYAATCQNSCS
Description: in vitro functional assay at the GLP-1 receptor (cyclase, cAMP production in RIN m5f cell membranes). It is filed as biochemical. The following applies: Cyclase GLP-1 Receptor EC50 (nM), Table 1; RIN m5f cell membranes, cAMP production (AlphaScreen). As to the method:
The compounds shown in Table 1 below were analyzed in an in vitro functional assay at the GLP-1 receptor. The assay was conducted as follows: Membrane fractions were prepared from confluent cultures of RIN m5f cells. Compounds were serially diluted with an assay buffer, and then added to a 96-well assay plate containing RIN m5f cell membranes in an ATP/GTP mixture. Cyclase activities were determined by measuring the production of cAMP induced through GLP-1 receptor activation. Quantification of cAMP production was achieved through a competitive chemiluminescence assay with a biotinylated-cAMP probe using Perkin Elmer Fusion™-Alpha Microplate Analyzer (AlphaScreen™ technology). The compound EC50 values were obtained through fitting the concentration-response curves to a four-parameter logistic equation within GraphPad PRISM® software.
A general note: cAMP levels reflect the balance of adenylyl cyclase and phosphodiesterase activity.

[1] abbreviates: Table 1, time in hours, tail blood glucose at t=2 and 4 hours post dose.

As to `CC[C@H](C)[C@H](NC(=O)[C@H](Cc1ccccc1)NC(=O)[C@H](CC(C)C)NC(=O)[C@H](CCCNC(=N)N)NC(=O)[C@@H](NC(=O)[C@H](C)NC(=O)[C@H](CCC(=O)O)NC(=O)[C@H](CCC(=O)O)NC(=O)[C@H](CCC(=O)O)NC(=O)[C@H](CC(C)C)NC(=O)[C@H](CCC(N)=O)NC(=O)[C@H](CCCCN)NC(=O)[C@H](CO)NC(=O)[C@H](CC(C)C)NC(=O)[C@H](CC(=O)O)NC(=O)[C@H](CO)NC(=O)[C@@H](NC(=O)[C@H](Cc1ccccc1)NC(=O)[C@@H](NC(=O)[C@H](C)N1CC[C@@H](C(=O)O)[C@H](NC(=O)[C@H](C)NC(=O)[C@@H](N)Cc2c[nH]cn2)C1=O)[C@@H](C)O)[C@@H](C)O)C(C)C)C(=O)N[C@@H](CCC(=O)O)C(=O)N[C@@H](Cc1c[nH]c2ccccc12)C(=O)N[C@@H](CC(C)C)C(=O)N[C@@H](CCCCN)C(=O)N[C@@H](CCC(N)=O)C(=O)NCC(=O)NCC(=O)N1CCC[C@H]1C(=O)N[C@@H](CO)C(=O)N[C@@H](CCCCN)C(=O)N[C@@H](CCC(=O)O)C(=O)N[C@H](C(=O)N[C@H](C(=O)N[C@@H](CO)C(=O)O)[C@@H](C)CC)[C@@H](C)CC` [16F], in the test with NIH/Swiss female mice (Table 1, time printed in minutes), the “In Vivo Glucose-Lowering Assay” value is listed as “about 30 minutes”. At GLP-1 receptor, this molecule yielded an EC50 of 0.61 nM. As to `CC[C@H](C)[C@H](NC(=O)[C@H](Cc1ccccc1)NC(=O)[C@H](CC(C)C)NC(=O)[C@H](CCCNC(=N)N)NC(=O)[C@@H](NC(=O)[C@H](C)NC(=O)[C@H](CCC(=O)O)NC(=O)[C@H](CCC(=O)O)NC(=O)[C@H](CCC(=O)O)NC(=O)[C@H](CC(C)C)NC(=O)[C@H](CCC(N)=O)NC(=O)[C@H](CCCCN)NC(=O)[C@H](CO)NC(=O)[C@H](CC(C)C)NC(=O)[C@H](CC(=O)O)NC(=O)[C@H](CO)NC(=O)[C@@H](NC(=O)[C@H](Cc1ccccc1)NC(=O)[C@@H](NC(=O)[C@@H]1CSC2C[C@@H](C(=O)O)[C@H](NC(=O)[C@H](C)NC(=O)[C@@H](N)Cc3c[nH]cn3)C(=O)N21)[C@@H](C)O)[C@@H](C)O)C(C)C)C(=O)N[C@@H](CCC(=O)O)C(=O)N[C@@H](Cc1c[nH]c2ccccc12)C(=O)N[C@@H](CC(C)C)C(=O)N[C@@H](CCCCN)C(=O)N[C@@H](CCC(N)=O)C(=O)NCC(=O)NCC(=O)N1CCC[C@H]1C(=O)N[C@@H](CO)C(=O)N[C@@H](CCCCN)C(=O)N[C@@H](CCC(=O)O)C(=O)N[C@H](C(=O)N[C@H](C(=O)N[C@@H](CO)C(=O)O)[C@@H](C)CC)[C@@H](C)CC` (some centres unmarked) [16C], the “In Vivo Glucose-Lowering Assay” value in the test on NIH/Swiss female mice (Table 1, result in words (inactive / similar to GLP-1)) is “inactive”. Moreover, the midpoint of the response at GLP-1 receptor, the EC50, lay at 1.1 nM.

As for `CC[C@H](C)[C@H](NC(=O)[C@H](Cc1ccccc1)NC(=O)[C@H](CC(C)C)NC(=O)[C@H](CCCNC(=N)N)NC(=O)[C@@H](NC(=O)[C@H](C)NC(=O)[C@H](CCC(=O)O)NC(=O)[C@H](CCC(=O)O)NC(=O)[C@H](CCC(=O)O)NC(=O)[C@H](CC(C)C)NC(=O)[C@H](CCC(N)=O)NC(=O)[C@H](CCCCN)NC(=O)[C@H](CO)NC(=O)[C@H](CC(C)C)NC(=O)[C@H](CC(=O)O)NC(=O)[C@H](CO)NC(=O)[C@@H](NC(=O)[C@H](Cc1ccccc1)NC(=O)[C@@H](NC(=O)CNC(=O)C(C)(C)NC(=O)[C@@H](C)NC(=O)[C@@H](N)Cc1c[nH]cn1)[C@@H](C)O)[C@@H](C)O)C(C)C)C(=O)N[C@@H](CCC(=O)O)C(=O)N[C@@H](Cc1ccccc1)C(=O)N[C@@H](CC(C)C)C(=O)N[C@@H](CCCCN)C(=O)N[C@@H](CC(N)=O)C(N)=O` [9B], in the test on NIH/Swiss female mice (setting [1]), the “In Vivo Glucose-Lowering Assay” value was “more than 4 hours”. The EC50 on GLP-1 receptor amounted to 0.03 nM. In the same order, the values of `CC[C@H](C)[C@H](NC(=O)[C@H](Cc1ccccc1)NC(=O)[C@H](CC(C)C)NC(=O)[C@H](CCCNC(=N)N)NC(=O)[C@@H](NC(=O)[C@H](C)NC(=O)[C@H](CCC(=O)O)NC(=O)[C@H](CCC(=O)O)NC(=O)[C@H](CCC(=O)O)NC(=O)[C@H](CC(C)C)NC(=O)[C@H](CCC(N)=O)NC(=O)[C@H](CCCCN)NC(=O)[C@H](CO)NC(=O)[C@H](CC(C)C)NC(=O)[C@H](CC(=O)O)NC(=O)[C@H](CO)NC(=O)[C@@H](NC(=O)[C@H](Cc1ccccc1)NC(=O)[C@@H](NC(=O)CNC(=O)[C@@H]1CS(=O)(=O)CN1C(=O)[C@@H](C)NC(=O)[C@@H](N)Cc1c[nH]cn1)[C@@H](C)O)[C@@H](C)O)C(C)C)C(=O)N[C@@H](CCC(=O)O)C(=O)N[C@@H](Cc1ccccc1)C(=O)N[C@@H](CC(C)C)C(=O)N[C@@H](CCCCN)C(=O)N[C@@H](CC(N)=O)C(N)=O` [9F] are “more than 4 hours” and 0.07 nM.

As for `CC[C@H](C)[C@H](NC(=O)[C@H](Cc1ccccc1)NC(=O)[C@H](CC(C)C)NC(=O)[C@H](CCCNC(=N)N)NC(=O)[C@@H](NC(=O)[C@H](C)NC(=O)[C@H](CCC(=O)O)NC(=O)[C@H](CCC(=O)O)NC(=O)[C@H](CCC(=O)O)NC(=O)[C@H](CC(C)C)NC(=O)[C@H](CCC(N)=O)NC(=O)[C@H](CCCCN)NC(=O)[C@H](CO)NC(=O)[C@H](CC(C)C)NC(=O)[C@H](CC(=O)O)NC(=O)[C@H](CO)NC(=O)[C@@H](NC(=O)[C@H](Cc1ccccc1)NC(=O)[C@@H](NC(=O)CNC(=O)[C@@H]1C[C@@H](O)CN1C(=O)CNC(=O)[C@@H](N)Cc1c[nH]cn1)[C@@H](C)O)[C@@H](C)O)C(C)C)C(=O)N[C@@H](CCC(=O)O)C(=O)N[C@@H](Cc1c[nH]c2ccccc12)C(=O)N[C@@H](CC(C)C)C(=O)N[C@@H](CCCCN)C(=O)N[C@@H](CCC(N)=O)C(=O)NCC(=O)NCC(=O)N1CCC[C@H]1C(=O)N[C@@H](CO)C(=O)N[C@@H](CCCCN)C(=O)N[C@@H](CCC(=O)O)C(=O)N[C@H](C(=O)N[C@H](C(=O)N[C@@H](CO)C(N)=O)[C@@H](C)CC)[C@@H](C)CC` [2I], the “In Vivo Glucose-Lowering Assay” value in the test on NIH/Swiss female mice (setting [1]) is listed as “more than 4 hours”. Consider `CC[C@H](C)[C@H](NC(=O)[C@H](Cc1ccccc1)NC(=O)[C@H](CC(C)C)NC(=O)[C@H](CCCNC(=N)N)NC(=O)[C@@H](NC(=O)[C@H](C)NC(=O)[C@H](CCC(=O)O)NC(=O)[C@H](CCC(=O)O)NC(=O)[C@H](CCC(=O)O)NC(=O)[C@H](CC(C)C)NC(=O)[C@H](CCC(N)=O)NC(=O)[C@H](CCCCN)NC(=O)[C@H](CO)NC(=O)[C@H](CC(C)C)NC(=O)[C@H](CC(=O)O)NC(=O)[C@H](CO)NC(=O)[C@@H](NC(=O)[C@H](Cc1ccccc1)NC(=O)[C@@H](NC(=O)CNC(=O)[C@@H]1CCCCN1C(=O)CNC(=O)[C@@H](N)Cc1c[nH]cn1)[C@@H](C)O)[C@@H](C)O)C(C)C)C(=O)N[C@@H](CCC(=O)O)C(=O)N[C@@H](Cc1c[nH]c2ccccc12)C(=O)N[C@@H](CC(C)C)C(=O)N[C@@H](CCCCN)C(=O)N[C@@H](CCC(N)=O)C(=O)NCC(=O)NCC(=O)N1CCC[C@H]1C(=O)N[C@@H](CO)C(=O)N[C@@H](CCCCN)C(=O)N[C@@H](CCC(=O)O)C(=O)N[C@H](C(=O)N[C@H](C(=O)N[C@@H](CO)C(N)=O)[C@@H](C)CC)[C@@H](C)CC` [2F], for which the “In Vivo Glucose-Lowering Assay” value in the test on NIH/Swiss female mice (setting [1]) was “more than 4 hours”. The same measure, in the same setting: for `CC[C@H](C)[C@H](NC(=O)[C@H](Cc1ccccc1)NC(=O)[C@H](CC(C)C)NC(=O)[C@H](CCCNC(=N)N)NC(=O)[C@@H](NC(=O)[C@H](C)NC(=O)[C@H](CCC(=O)O)NC(=O)[C@H](CCC(=O)O)NC(=O)[C@H](CCC(=O)O)NC(=O)[C@H](CC(C)C)NC(=O)[C@H](CCC(N)=O)NC(=O)[C@H](CCCCN)NC(=O)[C@H](CO)NC(=O)[C@H](CC(C)C)NC(=O)[C@H](CC(=O)O)NC(=O)[C@H](CO)NC(=O)[C@@H](NC(=O)[C@H](Cc1ccccc1)NC(=O)[C@@H](NC(=O)CNC(=O)[C@@H]1CCCN1C(=O)CNC(=O)[C@@H](N)Cc1c[nH]cn1)[C@@H](C)O)[C@@H](C)O)C(C)C)C(=O)N[C@@H](CCC(=O)O)C(=O)N[C@@H](Cc1c[nH]c2ccccc12)C(=O)N[C@@H](CC(C)C)C(=O)N[C@@H](CCCCN)C(=O)N[C@@H](CCC(N)=O)C(=O)NCC(=O)NCC(=O)N1CCC[C@H]1C(=O)N[C@@H](CO)C(=O)N[C@@H](CCCCN)C(=O)N[C@@H](CCC(=O)O)C(=O)N[C@H](C(=O)N[C@H](C(=O)N[C@@H](CO)C(N)=O)[C@@H](C)CC)[C@@H](C)CC` [2B] the value was “more than 4 hours”.

As a reminder, the EC50 is the concentration at which the effect is half-maximal. Read a low EC50 as a more potent agent.
